Laboratory results reported in US10196403B2, “Compounds and compositions and uses thereof” (Sunovion Pharmaceuticals Inc., priority 2016, dated 2019).
Like-named read-outs stand apart in the source and are kept apart here.

Columns and labels:
Assay type in all cases: in vivo
Male Balb/cJ mice = experiment: Forced Swim test (FST); conditions: 30 minute pretreatment; time immobile over 6 minute trial
Procedure: Forced Swim Test Procedures
The Forced Swim test (FST) is an indicator of the antidepressant-like activity of a test compound. Male Balb/cJ mice (26-31 g) were given a 30 minute pretreatment with vehicle (sterile water), sertraline control or test compound. The FST consists of one 6 minute session of forced swimming in individual opaque cylinders containing water at a temperature of 23±2° C. The mouse will swim before “giving up” and becoming immobile, the time spent immobile was recorded over the 6 minute trial. A compound with antidepressant-like activity will decrease the time the mouse is immobile over the 6 minute trial. Data were analyzed by analysis of variance (ANOVA) followed by post-hoc comparisons with Fisher Tests when appropriate.

Male C57Bl/6J mice [1] = experiment: Amphetamine-induced hyperlocomotion assay; design: key: +++ = <1.0 mg/kg; ++ = 1-10 mg/kg; + = 10-30 mg/kg; NE = no effect; conditions: AMPH 4 mg/kg ip; stimulant-induced hyperactivity
Procedure: Amphetamine-Induced Hyperlocomotion Assay
Amphetamine (AMPH) is frequently used to induce or mimic a manic-like state. The antimanic-like effects of test compounds were evaluated in male C57Bl/6J mice. Mice were acclimatized to the experimental room for at least 1 hour prior to testing. The mice (n=10 per group) were administered vehicle or test compound and placed in the open field (OF) chambers for 30 minutes of baseline activity measurement. The mice were then injected with either water or AMPH (4 mg/kg, ip) and placed back in the OF chambers for a 60-minute testing session during which, the effects of test compounds on stimulant-induced hyperactivity behaviors (total distance traveled, rearing and stereotypy) were measured. Data were analyzed by analysis of variance (ANOVA) followed by post-hoc comparisons with Fisher Tests when appropriate.

Male C57Bl/6J mice [2] = experiment: Phencyclidine (PCP)-induced hyperlocomotion; conditions: PCP 2.5 mg/kg s.c.; distance traveled
Procedure: Phencyclidine (PCP)-Induced Hyperlocomotion
The PCP-induced hyperlocomotion assay is an indicator of antipsychotic-like activity. Male C57Bl/6J mice (20-26 g) were administered vehicle or test compound and placed in holding cages for 30 minutes, after which they were placed in the locomotor activity chambers for 30 minutes of baseline capture. The test chambers are Plexiglas rectangular chambers (24×45 cm) that fit inside two steel frames (9.5×18 inches) and are fitted with two-dimensional 4×8 beam grids to monitor horizontal and vertical locomotor activity. Total distance traveled was measured from horizontal beam breaks as the animal traveled. Following the 30 minute baseline period, all […] were injected with saline or PCP (2.5 mg/kg, s.c.) and returned to the locomotor activity chambers for a 60 minute test session. A compound with antipsychotic-like activity will decrease the distance traveled following administration of PCP. Data were analyzed by analysis of variance (ANOVA) followed by post-hoc comparisons with Fisher Tests when appropriate.

mice = experiment: Neuropharmacological Assay (SmartCube); conditions: for minimal effective dose: Mus musculus, read-out: POTENCY (minimal effective dose, MED); for AD: ADHD (SmartCube probability) / AG: analgesic (SmartCube probability) / AX: anxiolytic (SmartCube probability) / CE: cognitive enhancer (SmartCube probability) / DP: anti-depressant (SmartCube probability) / MS: mood stabilizer (SmartCube probability) / PS: anti-psychotic (SmartCube probability) / SD: sedative hypnotic (SmartCube probability) / UN: uncharacterized CNS activity (SmartCube probability): mice, i.p. 15 min before test, most efficacious dose(s) of 3 doses
How it was run: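 Compounds in NMP/PEG/propylene glycol given i.p. 15 min before automated video-based behavioral testing, at 3 doses; behavioral signature compared with a reference-compound database to give probability per drug class, reported at most efficacious dose. MED = dose (mpk) giving ≥50% total activity; doses typically 0.3–30 mpk.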

Adult male AJ mice = experiment: Tail suspension test (TST); design: key: +++ = <1.0 mg/kg; ++ = 1-10 mg/kg; + = 10-30 mg/kg; NE = no effect; conditions: oral gavage 30 min before test; time immobile
From the text: The tail suspension test (TST) is a rodent screening test for potential (human) antidepressant drugs. It is based on the assumption that an animal will actively try to escape an aversive (stressful) stimulus. If escape is impossible, the animal will eventually stop trying (“give up”). In the TST, a mouse is suspended by the tail so that its body dangles in the air, head downward. Mice initially struggle to face upward and climb to a solid surface. When the animal stops struggling and hangs immobile it is considered to have “given up”. Shorter periods of immobility are characteristic of antidepressant-like activity. Accordingly, longer periods of immobility are considered indicative of a depressive-like state. It has been shown that treatment with an antidepressant drug will decrease the time the animal spends immobile. See generally L. Stem et al., Psychopharmacology (Berl). 1985; 85(3):367-70; B. Thierry et al., Psychopharmacology 1986; 90:284-85.
Procedure. Adult male AJ mice from Jackson Laboratories received vehicle (sterile water) or test compound orally by gavage, or the positive control desipramine (20 mg/kg, i.p.), in 10 mL/kg injection volumes, 30 min before being subjected to the Tail Suspension Test. In this test, mice are placed in the Tail Suspension chambers (white polyvinylchloride cubicles measuring 33×33×31.75 cm Med Associates, Inc. St. Albans, Vt.) by a piece of transparent (Scotch®) tape attached to the tail, from about the mid-tail, with approximately 2 cm of tape past the end of the tail for 10 min during which the time spent immobile is measured. A reduction in total time immobile relative to the vehicle condition indicates an antidepressant drug-like response.

For CNC[C@@H]1OCCc2ccc3c(c21)OCO3 [Example 2, (R)-1-(6,9-dihydro-7H-[1,3]dioxolo[4,5-h]isochromen-9-yl)-N-methylmethanamine], the “FST: efficacious dose” value (Male Balb/cJ mice) was “+++ (+++ = <1.0 mg/kg)”, the “AMPH: efficacious dose” value (Male C57Bl/6J mice [1]) was “NE” and the “PCP: efficacious dose” value (Male C57Bl/6J mice [2]) was “+++ (+++ = <1.0 mg/kg)”. The minimal effective dose (mice) was < 3 mg/kg, the “AD: ADHD (SmartCube probability)” value (mice) was “+ (LOQ≤ + <5%)” and the “AG: analgesic (SmartCube probability)” value (mice) was “++ (5%≤ ++ <25%)”. The “AX: anxiolytic (SmartCube probability)” value (mice) was “++ (5%≤ ++ <25%)”, the “CE: cognitive enhancer (SmartCube probability)” value (mice) was “++ (5%≤ ++ <25%)” and the “DP: anti-depressant (SmartCube probability)” value (mice) was “+++ (25%≤ +++ <50%)”. For the same compound, the “MS: mood stabilizer (SmartCube probability)” value (mice) was “++ (5%≤ ++ <25%)”, the “PS: anti-psychotic (SmartCube probability)” value (mice) was “++ (5%≤ ++ <25%)” and the “SD: sedative hypnotic (SmartCube probability)” value (mice) was “+ (LOQ≤ + <5%)”. The “UN: uncharacterized CNS activity (SmartCube probability)” value (mice) was “+++ (25%≤ +++ <50%)”.
For CNC[C@@H]1OCCc2cccc(F)c21 [Example 26, (R)-1-(8-fluoroisochroman-1-yl)-N-methylmethanamine], the “FST: efficacious dose” value (Male Balb/cJ mice) was “+++ (+++ = <1.0 mg/kg)”, the “AMPH: efficacious dose” value (Male C57Bl/6J mice [1]) was “+ (+ = 10-30 mg/kg)” and the “PCP: efficacious dose” value (Male C57Bl/6J mice [2]) was “+++ (+++ = <1.0 mg/kg)”. For the same compound, the “TST: efficacious dose” value (Adult male AJ mice) was “NE”, the minimal effective dose (mice; MED = dose having 50% or more total activity in SmartCube) was < 3 mg/kg and the “AD: ADHD (SmartCube probability)” value (mice) was “+ (LOQ≤ + <5%)”. The “AG: analgesic (SmartCube probability)” value (mice) was “++ (5%≤ ++ <25%)”, the “AX: anxiolytic (SmartCube probability)” value (mice) was “++ (5%≤ ++ <25%)” and the “CE: cognitive enhancer (SmartCube probability)” value (mice) was “++ (5%≤ ++ <25%)”. For the same compound, the “DP: anti-depressant (SmartCube probability)” value (mice) was “++++ (50%≤ ++++)”, the “MS: mood stabilizer (SmartCube probability)” value (mice) was “+ (LOQ≤ + <5%)” and the “PS: anti-psychotic (SmartCube probability)” value (mice) was “++ (5%≤ ++ <25%)”. For the same compound, the “SD: sedative hypnotic (SmartCube probability)” value (mice) was “++ (5%≤ ++ <25%)” and the “UN: uncharacterized CNS activity (SmartCube probability)” value (mice) was “+++ (25%≤ +++ <50%)”.
